One test has as its target Acetylcholinesterase (Homo sapiens, UniProt P22303). Briefly: Acetylcholinesterase Assay. Particulars: pH 7.7. On the procedure:
The AChE inhibition activity was determined according to the Ellman's method with slight modifications. Total volume of the reaction mixture was 100 µL. It contained 60 µL Na2HPO4 buffer with concentration of 50 mM and pH 7.7. Ten µL test compound (0.5 mM well-1) was added, followed by the addition of 10 µL (0.005 unit well-1) enzyme. The contents were mixed and preread at 405 nm. Then contents were pre-incubated for 10 min at 37 °C. The reaction was initiated by the addition of 10 µL of 0.5 mM well-1 substrate (acetylthiocholine iodide), followed by the addition of 10 µL DTNB (0.5 mM well-1). After 30 min of incubation at 37 °C, absorbance was measured at 405 nm. Synergy HT (BioTek, USA) 96-well plate reader was used in all experiments. All experiments were carried out with their respective controls in triplicate.

In another test the target is Cholinesterase (Homo sapiens, UniProt P06276). In words: Butyrylcholinesterase Assay. Particulars: pH 7.7. On the procedure:
The butyrylcholinesterase (BChE) inhibition activity was determined according to the Ellman's method with minor modifications. Total volume of the reaction mixture was 100 µL containing 60 µL, Na2HPO4 buffer, 50 mM and pH 7.7. Ten µL test compound 0.5 mM well-1, followed by the addition of 10 µL (0.5 unit well-1)BChE. […] The reaction was initiated by the addition of 10 µL of 0.5 mM well-1 substrate (butyrylthiocholine bromide) followed by the addition of 10 µL DTNB, 0.5 mM well-1. […] Synergy HT (BioTek, USA) 96-well plate reader was used in all experiments. All experiments were carried out with their respective controls in triplicate.

Usually IC50 stands for the concentration at which inhibition is half-maximal.

Sequence of Acetylcholinesterase (P22303 whole entry): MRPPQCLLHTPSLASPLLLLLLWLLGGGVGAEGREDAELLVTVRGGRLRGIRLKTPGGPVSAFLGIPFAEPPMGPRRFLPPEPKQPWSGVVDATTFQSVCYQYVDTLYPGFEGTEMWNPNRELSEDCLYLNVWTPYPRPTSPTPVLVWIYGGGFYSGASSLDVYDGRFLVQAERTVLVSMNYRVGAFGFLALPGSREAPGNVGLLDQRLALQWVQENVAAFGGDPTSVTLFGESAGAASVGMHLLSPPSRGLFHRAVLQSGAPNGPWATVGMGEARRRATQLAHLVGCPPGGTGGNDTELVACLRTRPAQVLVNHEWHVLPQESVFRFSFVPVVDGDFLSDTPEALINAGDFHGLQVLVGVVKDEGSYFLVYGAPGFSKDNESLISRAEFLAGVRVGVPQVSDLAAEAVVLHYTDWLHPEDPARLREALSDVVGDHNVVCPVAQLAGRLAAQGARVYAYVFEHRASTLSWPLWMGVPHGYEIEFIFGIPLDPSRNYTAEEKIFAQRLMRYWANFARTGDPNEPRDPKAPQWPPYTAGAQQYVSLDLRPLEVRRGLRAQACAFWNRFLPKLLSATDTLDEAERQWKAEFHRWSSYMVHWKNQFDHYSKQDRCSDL
Sequence of Cholinesterase (P06276 whole entry): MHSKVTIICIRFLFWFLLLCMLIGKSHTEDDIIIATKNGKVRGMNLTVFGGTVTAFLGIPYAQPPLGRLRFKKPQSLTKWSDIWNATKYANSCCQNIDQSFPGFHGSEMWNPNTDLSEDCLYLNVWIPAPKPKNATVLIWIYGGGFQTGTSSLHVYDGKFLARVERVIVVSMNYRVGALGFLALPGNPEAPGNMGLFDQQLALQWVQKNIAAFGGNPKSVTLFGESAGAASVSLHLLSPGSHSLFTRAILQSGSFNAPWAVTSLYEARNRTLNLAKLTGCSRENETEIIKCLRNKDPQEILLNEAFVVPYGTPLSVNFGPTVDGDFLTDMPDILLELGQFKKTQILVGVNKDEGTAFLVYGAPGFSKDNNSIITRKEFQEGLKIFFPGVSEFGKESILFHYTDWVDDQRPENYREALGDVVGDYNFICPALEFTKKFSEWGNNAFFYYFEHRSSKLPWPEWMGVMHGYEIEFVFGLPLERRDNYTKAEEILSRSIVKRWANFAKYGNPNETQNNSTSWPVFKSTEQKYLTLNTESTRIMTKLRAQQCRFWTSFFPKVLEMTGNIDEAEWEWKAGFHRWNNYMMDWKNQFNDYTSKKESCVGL

Turning to `CC(=O)N(c1ccc(-c2ccc(N(C(C)=O)S(=O)(=O)c3ccccc3)c(C)c2)cc1C)S(=O)(=O)c1ccccc1` [N,N'-(3,3'-dimethylbiphenyl-4,4'-diyl)bis(N-(phenylsulfonyl)acetamide) (3i)], the IC50 on Acetylcholinesterase was 96.3 µM.
As to `Cc1cc(-c2ccc(N(Cc3ccccc3)S(=O)(=O)c3ccccc3)c(C)c2)ccc1N(Cc1ccccc1)S(=O)(=O)c1ccccc1` [N,N'-(3,3'-dimethylbiphenyl-4,4'-diyl)bis(N-benzylbenzenesulfonamide) (3p)], the IC50 stood at 31.3 µM at Cholinesterase and 2.27 µM at Acetylcholinesterase.
For `CCCCN(c1ccc(-c2ccc(N(CCCC)S(=O)(=O)c3ccccc3)c(C)c2)cc1C)S(=O)(=O)c1ccccc1` [N,N'-(3,3'-dimethylbiphenyl-4,4'-diyl)bis(N-butylbenzenesulfonamide) (3k)] the same measures were 20.3 µM and 3.72 µM.
For `CCCCCCCN(c1ccc(-c2ccc(N(CCCCCCC)S(=O)(=O)c3ccccc3)c(C)c2)cc1C)S(=O)(=O)c1ccccc1` [N,N'-(3,3'-dimethylbiphenyl-4,4'-diyl)bis(N-heptylbenzenesulfonamide) (3n)] the same measures were 48.7 µM and 43.2 µM.
For `CCCCCCCCCCCCCCCCN(c1ccc(-c2ccc(N(CCCCCCCCCCCCCCCC)S(=O)(=O)c3ccccc3)c(C)c2)cc1C)S(=O)(=O)c1ccccc1` [N,N'-(3,3'-dimethylbiphenyl-4,4'-diyl)bis(N-hexadecylbenzenesulfonamide) (3o)] the same measures were 24.7 µM and 2.45 µM.
`CCCCCCN(c1ccc(-c2ccc(N(CCCCCC)S(=O)(=O)c3ccccc3)c(C)c2)cc1C)S(=O)(=O)c1ccccc1` [N,N'-(3,3'-dimethylbiphenyl-4,4'-diyl)bis(N-hexylbenzenesulfonamide) (3m)]: on Acetylcholinesterase, the IC50 was determined as 49.6 µM.
Turning to `Cc1cc(-c2ccc(N(C(C)C)S(=O)(=O)c3ccccc3)c(C)c2)ccc1N(C(C)C)S(=O)(=O)c1ccccc1` [N,N'-(3,3'-dimethylbiphenyl-4,4'-diyl)bis(N-isopropylbenzenesulfonamide) (3j)], the IC50 at Acetylcholinesterase came out at 101 µM.
Still for that read-out and setting: next, `CCCCCN(c1ccc(-c2ccc(N(CCCCC)S(=O)(=O)c3ccccc3)c(C)c2)cc1C)S(=O)(=O)c1ccccc1` [N,N'-(3,3'-dimethylbiphenyl-4,4'-diyl)bis(N-pentylbenzenesulfonamide) (3l)]: 51.2 µM; `Cc1cc(-c2ccc(NS(=O)(=O)c3ccccc3)c(C)c2)ccc1NS(=O)(=O)c1ccccc1` [N,N'-(3,3'-dimethylbiphenyl-4,4'-diyl)dibenzenesulfonamide (2b)]: 123 µM.
For `CC(=O)N(c1ccc(-c2ccc(N(C(C)=O)S(=O)(=O)c3ccccc3)cc2)cc1)S(=O)(=O)c1ccccc1` [N,N'-(biphenyl-4,4'-diyl)bis(N-(phenylsulfonyl)acetamide) (3a)], the IC50 at Cholinesterase was 156 µM; on Acetylcholinesterase, 103 µM.
For `O=S(=O)(c1ccccc1)N(Cc1ccccc1)c1ccc(-c2ccc(N(Cc3ccccc3)S(=O)(=O)c3ccccc3)cc2)cc1` [N,N'-(biphenyl-4,4'-diyl)bis(N-benzylbenzenesulfonamide) (3h)] the same measures were 35.8 µM and 61.6 µM.
For `CCCCN(c1ccc(-c2ccc(N(CCCC)S(=O)(=O)c3ccccc3)cc2)cc1)S(=O)(=O)c1ccccc1` [N,N'-(biphenyl-4,4'-diyl)bis(N-butylbenzenesulfonamide) (3c)] the same measures were 125 µM and 8.41 µM.
Regarding `CCCCCCCN(c1ccc(-c2ccc(N(CCCCCCC)S(=O)(=O)c3ccccc3)cc2)cc1)S(=O)(=O)c1ccccc1` [N,N'-(biphenyl-4,4'-diyl)bis(N-heptylbenzenesulfonamide) (3f)], the IC50 on Acetylcholinesterase turned out to be 58.6 µM.
On the same count and under the same terms, next, `CCCCCCN(c1ccc(-c2ccc(N(CCCCCC)S(=O)(=O)c3ccccc3)cc2)cc1)S(=O)(=O)c1ccccc1` [N,N'-(biphenyl-4,4'-diyl)bis(N-hexylbenzenesulfonamide) (3e)]: 78.6 µM; `CC(C)N(c1ccc(-c2ccc(N(C(C)C)S(=O)(=O)c3ccccc3)cc2)cc1)S(=O)(=O)c1ccccc1` [N,N'-(biphenyl-4,4'-diyl)bis(N-isopropylbenzenesulfonamide) (3b)]: 73.2 µM; `CCCCCN(c1ccc(-c2ccc(N(CCCCC)S(=O)(=O)c3ccccc3)cc2)cc1)S(=O)(=O)c1ccccc1` [N,N'-(biphenyl-4,4'-diyl)bis(N-pentylbenzenesulfonamide) (3d)]: 79.6 µM.
Turning to `O=S(=O)(Nc1ccc(-c2ccc(NS(=O)(=O)c3ccccc3)cc2)cc1)c1ccccc1` [N,N'-(biphenyl-4,4'-diyl)dibenzenesulfonamide (2a)], the IC50 came out at 203 µM on Cholinesterase and 42.3 µM at Acetylcholinesterase.
For `CCCCCCCCCCCCCCCCN(c1ccc(-c2ccc(N(CCCCCCCCCCCCCCCC)S(=O)(=O)c3ccccc3)cc2)cc1)S(=O)(=O)c1ccccc1` [N,N’-(biphenyl-4,4’-diyl)bis(N-hexadecylbenzenesulfonamide) (3g)] the same measures were 7.74 µM and 4.63 µM.

The values are drawn from BindingDB's records for doi:10.1016/j.bioorg.2015.11.002 (Government College University, 2016).
